{"source": "paper PMC10367067", "about": "“A Series of Non-Oxido V^IV Complexes of Dibasic ONS Donor Ligands: Solution Stability, Chemical Transformations, Protein Interactions, and Antiproliferative Activity” (Inorganic Chemistry, 2023)", "key": {"[1]": {"test_system": "HeLa (cervical cancer) cells", "design": "method as in PMID 36598160, doi:10.1002/aoc.6082", "details": "identical experimental conditions; cited from earlier work"}, "[2]": {"test_system": "HT-29 (colon cancer) cells", "design": "method as in PMID 36598160, doi:10.1002/aoc.6082", "details": "identical experimental conditions; cited from earlier work"}, "[3]": {"test_system": "HeLa (cervical cancer) cells", "assay": "MTT assay, HeLa cells", "format": "cell-based", "details": "for IC50: 48 h of exposure, mean ± SD; for selectivity index (SI), HeLa: NIH-3T3 vs HeLa, 48 h", "method": "(§1) HT-29 (colon cancer), HeLa (cervical cancer), and NIH-3T3 (mouse embryonic fibroblasts) cells were maintained in DMEM supplemented with 10% FBS, penicillin–streptomycin solution in a humidified (95% humidity) CO2 incubator (5% CO2). Thereafter, cells were harvested from the logarithmic phase and seeded into a 96-well plate at a concentration of 8 × 10^4 cells per well. After overnight seeding, cells were treated with different concentrations (2.5, 5, 10, 20, and 50 μM) of the tested ligands and vanadium complexes (H2L^1–4 and 1–4) for 48 h. The compounds’ stock solutions were prepared in DMSO. DMEM was used to prepare the final working concentration of the compounds, so that the final amount of DMSO is less than 2%. The effect of the complexes on the viability of the cells was evaluated through MTT dye reduction assay by measuring the optical density at 595 nm.[93] DMSO alone, used to dissolve the complexes, was also employed for the control group treatment."}, "[4]": {"test_system": "NIH-3T3 (mouse embryonic fibroblasts) cells", "assay": "MTT assay, NIH-3T3 normal cells", "format": "cell-based", "details": "48 h of exposure, mean ± SD", "method": "as §1"}, "[5]": {"test_system": "HT-29 (colon cancer) cells", "assay": "MTT assay, HT-29 cells", "format": "cell-based", "details": "for IC50: 48 h of exposure, mean ± SD; for selectivity index (SI), HT-29: NIH-3T3 vs HT-29, 48 h", "method": "as §1"}, "HT-29 cells": {"test_system": "HT-29 cells", "assay": "Annexin V-FITC/PI apoptosis assay by flow cytometry", "format": "cell-based", "details": "48 h, control 9%", "method": "The apoptotic population induced by complexes 1 and 2 in HT-29 cells was evaluated using Annexin V-FITC Apoptosis Detection Kit (Abgenex) by a flow cytometer (BD Accuri C6 flow cytometer; BectoneDickinson).[125] HT-29 cells (3 × 10^5 cells/well) were cultured in a 6-well plate for 24 h. After the cells were adhered, different concentrations (5 and 10 μM) of the tested complexes were treated and incubated for further 48 h. Subsequently, the cells were collected by trypsinization and then suspended in 1X binding buffer. Finally, the suspension was stained with 5 μL of Annexin V and PI at room temperature and incubated for 15 min in the dark. Then, the samples were immediately analyzed under a BD Accuri C6 flow cytometer."}, "BSA": {"target": "T1, BSA (Bos taurus, UniProt P02769)", "T1 construct": "purchased Sigma-Aldrich", "T1 sequence (P02769 25-607)": "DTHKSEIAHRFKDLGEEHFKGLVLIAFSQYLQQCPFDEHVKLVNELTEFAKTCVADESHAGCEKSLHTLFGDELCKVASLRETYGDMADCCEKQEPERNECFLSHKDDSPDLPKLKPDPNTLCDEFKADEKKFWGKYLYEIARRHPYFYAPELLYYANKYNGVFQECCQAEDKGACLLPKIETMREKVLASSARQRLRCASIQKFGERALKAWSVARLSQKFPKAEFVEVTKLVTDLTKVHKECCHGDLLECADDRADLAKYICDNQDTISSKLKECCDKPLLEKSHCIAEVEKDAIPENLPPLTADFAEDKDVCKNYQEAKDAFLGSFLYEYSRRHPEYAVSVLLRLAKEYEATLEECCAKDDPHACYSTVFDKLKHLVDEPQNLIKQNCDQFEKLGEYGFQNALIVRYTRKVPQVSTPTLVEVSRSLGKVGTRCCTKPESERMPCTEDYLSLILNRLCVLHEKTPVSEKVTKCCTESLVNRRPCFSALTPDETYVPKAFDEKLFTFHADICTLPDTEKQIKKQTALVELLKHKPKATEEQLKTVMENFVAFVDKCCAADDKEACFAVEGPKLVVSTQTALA", "assay": "Fluorescence quenching titration of BSA with the complexes", "format": "binding, bovine", "details": "room temperature", "method": "The interaction between complexes 1–4 and BSA was studied using fluorescence quenching spectroscopy on a PerkinElmer LS 55 instrument. The instrumental response was corrected by means of a correction function provided by the manufacturer. The fluorescence experiments were carried out at room temperature and are steady-state measurements. Electronic absorption spectra were measured on a PerkinElmer Lambda35.\nFatty acid free BSA stock solution was prepared in PBS buffer (10 mM, pH 7.4), and the concentration was determined spectrophotometrically considering the extinction coefficient 44,309 M^–1 cm^–1 at 280 nm.[107] Stock solutions of the complexes (ca. 8 × 10^–4 M) were prepared in DMSO and further diluted (1:10) immediately before running the experiments. […] Fluorescence emission spectra were measured at room temperature with λex = 295 nm between 310 and 500 nm. Fluorescence spectra containing the same amount of complex but no BSA were recorded and subtracted from each corresponding emission spectrum of the mixtures. […] UV–vis spectra were measured for each solution, and the absorbance at excitation and emission wavelengths were used to make corrections for inner filter effects and reabsorption.[108],[109]\nThe Stern–Volmer equation was used to fit the fluorescence quenching data[109] […]"}, "[6]": {"assay": "Solution stability (ESI-MS, EPR)", "format": "physicochemical", "method": "The stability of all complexes was established in water containing solvents through UV–vis, ESI mass spectrometry, and NMR and EPR spectroscopy.\nThe aged solutions in MeOH/H2O 90/10 (v/v) were diluted in CH3CN and analyzed by ESI-MS (concentration 50 μM). For all complexes, the most important species remained those detected at t = 0 h, i.e., the non-oxido V^IV complexes [V^IV(L^1–4)2]; the V^V species [V^V(L^1–4)2]^+, derived from the oxidation of the previous one, and [V^VO2(L^1–4)]^− were also detected. At these experimental conditions, the non-oxido V^IV complexes seem to be stable after 24 h with a slight increase in the oxidation process, as indicated by the increment of the relative amount of […] (Figure S14). […] This was considered during the docking studies.\n(§2) EPR spectra were recorded 24 h after the dissolution of the most soluble compound, [V^IV(L^1)2] (1), in DMSO and in an aqueous solution in phosphate buffer at pH 7.4 (Figure 8). […] The spectrum in DMSO is very similar to that in CH2Cl2 (cfr. traces in Figures 6 and 8), with the coexistence of fac (1a) and mer (1b) isomers."}, "Solubility observations": {"assay": "Solubility observations", "format": "physicochemical", "text": "The non-oxido vanadium(IV) complexes (1–4) were synthesized by the reaction of tridentate dibasic ONS donor dithiocarbazates H2L^1–4 with [V^IVO(acac)2] in a 2:1 molar ratio in CH3CN medium (Scheme 1). […] They are soluble in polar aprotic solvents like DMSO, DMF, DCM, THF, and CH3CN and are partially soluble in aqueous media. The solid-state characterization of all compounds was done through elemental analysis, FTIR, and also with single-crystal X-ray diffraction studies of 1–3, while the solution phase characterization was carried out through UV–vis, ESI-MS spectrometry, and EPR spectroscopy. Details of all the characterizations are described in the following sections.\nas §2"}}, "note": "Read-outs that look alike come from different tables or passages of the source."}
{"smiles": "N.N.[Cl][Pt][Cl]", "note": "[cisplatin]", "values": [{"measurement": "IC50", "setting": "[1]", "result": "25.5 ± 0.8", "unit": "µM"}, {"measurement": "IC50", "setting": "[2]", "result": "32.7 ± 0.6", "unit": "µM"}]}
{"smiles": "CCN(CC)c1ccc(/C=N/NC(=S)SC)c(O)c1", "note": "[H2L^1]", "values": [{"measurement": "IC50", "setting": "[3]; Homo sapiens, HeLa", "result": "15.7 ± 1.9", "unit": "µM"}, {"measurement": "selectivity index (SI), HeLa", "setting": "[3]", "result": 1.5}, {"measurement": "IC50", "setting": "[4]; Mus musculus, NIH3T3", "result": "23.5 ± 0.6", "unit": "µM"}, {"measurement": "IC50", "setting": "[5]; Homo sapiens, HT-29", "result": "14.7 ± 0.6", "unit": "µM"}, {"measurement": "selectivity index (SI), HT-29", "setting": "[5]", "result": 1.6}]}
{"smiles": "CCN(CC)c1ccc2c(c1)[O][V]1([O]c3cc(N(CC)CC)ccc3C=NN=C(SC)[S]1)[S]C(SC)=NN=C2", "note": "(centres unmarked) [complex 1, [V^IV(L^1)2]]", "values": [{"measurement": "apoptotic cells (sum of early and late apoptosis)", "setting": "HT-29 cells; 5 μM", "result": 15.8, "unit": "%"}, {"measurement": "apoptotic cells (sum of early and late apoptosis)", "setting": "HT-29 cells; 10 μM", "result": 48.8, "unit": "%"}, {"measurement": "n (equivalent binding sites of BSA)", "setting": "BSA; PBS pH 7.4", "result": 0.89}, {"measurement": "KBC (binding constant)", "setting": "BSA; PBS pH 7.4, from double logarithm plot", "result": "2.6 × 10^4"}, {"measurement": "IC50", "setting": "[3]", "result": "9.3 ± 0.2", "unit": "µM"}, {"measurement": "selectivity index (SI), HeLa", "setting": "[3]", "result": 0.9}, {"measurement": "stability by EPR in DMSO", "setting": "[6]; DMSO, after 24 h", "result": "the pattern remains substantially unaltered, even though a significant decrease in the spectral intensity is detected"}, {"measurement": "stability by EPR in aqueous solution", "setting": "[6]; phosphate buffer pH 7.4, after 24 h", "result": "the resonances of [V^IV(L^1)2] are clearly visible"}, {"measurement": "IC50", "setting": "[4]", "result": "8.7 ± 1.1", "unit": "µM"}, {"measurement": "IC50", "setting": "[5]", "result": "7.2 ± 0.6", "unit": "µM"}, {"measurement": "selectivity index (SI), HT-29", "setting": "[5]", "result": 1.2}, {"measurement": "behaviour in minimum essential medium (MEM, no FBS)", "setting": "Solubility observations; MEM instead of water", "result": "precipitation was evident from the beginning"}, {"measurement": "solubility in phosphate buffer", "setting": "Solubility observations; pH 7.4", "result": "not completely soluble"}]}
